22 compounds from patent US11332472B2, “Substituted piperidines as inhibitors of ubiquitin specific protease 7” (LES LABORATOIRES SERVIER, priority 2017, dated 2022) can be followed below.

The term IC50 denotes the concentration that inhibits the measured activity by half.

The target in the assay is T1, USP7 (Homo sapiens, UniProt Q93009, C315A).
T1 construct: 0.25 nM His-His-USP7 (aa208-560, [C315A]) was incubated with compound; His-His (N)
T1 sequence (Q93009 208-560 C315A): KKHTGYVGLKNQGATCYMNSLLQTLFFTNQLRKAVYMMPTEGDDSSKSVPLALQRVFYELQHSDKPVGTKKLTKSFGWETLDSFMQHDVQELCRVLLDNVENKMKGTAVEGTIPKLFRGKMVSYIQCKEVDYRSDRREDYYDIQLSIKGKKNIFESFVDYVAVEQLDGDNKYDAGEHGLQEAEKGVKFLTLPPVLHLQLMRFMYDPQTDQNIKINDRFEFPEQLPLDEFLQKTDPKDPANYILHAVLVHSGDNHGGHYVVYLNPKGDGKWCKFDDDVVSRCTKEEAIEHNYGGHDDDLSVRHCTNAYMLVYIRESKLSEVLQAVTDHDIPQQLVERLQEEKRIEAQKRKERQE
The experiment in a line: Inhibition of USP7 by Fluorescence Intensity (FLINT) readings, Ubiquitin-Rhodamine-110 substrate. It counts as biochemical. Conditions: 0.25 nM His-His-USP7 (aa208-560, [C315A]); compound 60 minutes at 30° C.; 500 nM Ubiquitin-Rhodamine substrate; 11-point curves. How it is done: USP7 activity was measured using Rhodamine-110 c-terminal labelled Ubiquitin as a substrate (Viva Biosciences). Incubation with USP7 results in the release of Rhodamine-110 leading to an increase in fluorescence which can be used in the continuous measurement of USP7 activity.
The USP7 reactions were performed in a 50 μL volume, in 384 well black solid low binding plates (Corning #3575). The reaction buffer consisted of 100 mM Bicine pH 8.0, 0.01% TritonX 100, 1 mM TCEP, and 10% DMSO.
0.25 nM His-His-USP7 (aa208-560, [C315A]) was incubated with compound (final concentration 10% DMSO) for 60 minutes at 30° C. The reaction was then initiated by the addition of 500 nM Ubiquitin-Rhodamine-10 substrate and the plate read every 3 minutes for 21 minutes to measure the release of Rhodamine-110. Fluorescence Intensity (FLINT) readings were measured using a Biomek Neo plate reader (Ex. 485 nm. Em. 535 nm).
The inhibition of increasing doses of compound was expressed as a percentage reduction in kinetic rate compared to the kinetic rates established between ‘DMSO only’ and ‘total inhibition’ controls (no USP7). The inhibitory concentrations that gave a 50% reduction in kinetic rate (IC50) were determined, from 11-point dose response curves, in XL-Fit using a 4-Parameter Logistic Model (Sigmoidal Dose-Response Model).
`Cn1ccnc1[C@@H]1CCCC[C@H]1C(=O)N1CCC(O)(Cn2cnc3c(ccn3-c3ccccc3)c2=O)CC1` (single isomer, unassigned) [Example 58, 3-[[4-hydroxy-1-[trans-2-(1-methylimidazol-2-yl)cyclohexanecarbonyl]-4-piperidyl]methyl]-7-phenyl-pyrrolo[2,3-d]pyrimidin-4-one] showed an IC50 of 20.3 µM. Regarding `COc1ccc(-n2ccc3c(=O)n(CC4(O)CCN(C(=O)[C@@H]5C(C)=CCC[C@H]5c5cccs5)CC4)cnc32)cc1` (single isomer, unassigned) [Example 59, 3-[[4-hydroxy-1-[trans-2-methyl-6-(2-thienyl)cyclohex-2-ene-1-carbonyl]-4-piperidyl]methyl]-7-(4-methoxyphenyl)pyrrolo[2,3-d]pyrimidin-4-one], inhibition was half-maximal at 0.0652 µM (IC50).

With `COc1ccc(-n2ccc3c(=O)n(CC4(O)CCN(C(=O)C5C(C)=CCCC5c5cccs5)CC4)cnc32)cc1` (single isomer, unassigned) [Example 60, 3-[[4-hydroxy-1-[trans-2-methy-6-(2-thienyl)cyclohex-2-ene-1-carbonyl]-4-piperidyl]methyl]-7-(4-methoxyphenyl)pyrrolo[2,3-d]pyrimidin-4-one], inhibition was half-maximal at 0.725 µM (IC50). The result for `COc1ccc(-n2ccc3c(=O)n(CC4(O)CCN(C(=O)[C@@H]5C(C)=CCC[C@H]5c5ccsc5)CC4)cnc32)cc1` (single isomer, unassigned) [Example 61, 3-[[4-hydroxy-1-[trans-2-methyl-6-(3-thienyl)cyclohex-2-ene-1-carbonyl]-4-piperidyl]methyl]-7-(4-methoxyphenyl)pyrrolo[2,3-d]pyrimidin-4-one] reads 0.0723 µM; that for `COc1ccc(-n2ccc3c(=O)n(CC4(O)CCN(C(=O)[C@@H]5C(C)=CCC[C@H]5c5ccsc5)CC4)cnc32)cc1` (single isomer, unassigned) [Example 62, 3-[[4-hydroxy-1-[trans-2-methyl-6-(3-thienyl)cyclohex-2-ene-1-carbonyl]-4-piperidyl]methyl]-7-(4-methoxyphenyl)pyrrolo[2,3-d]pyrimidin-4-one], 0.682 µM; that for `COc1ccc(-n2ccc3c(=O)n(CC4(O)CCN(C(=O)C5CCCCC5c5nccn5C)CC4)cnc32)cc1` (single isomer, unassigned) [Example 69, 3-[[4-hydroxy-1-trans-2-(1-methylimidazol-2-yl)cyclohexanecarbonyl]-4-piperidyl]methyl-7-(4-methoxyphenyl)pyrrolo[2,3-d]pyrimidin-4-one], 10.5 µM. With `COc1ccc(-n2ccc3c(=O)n(CC4(O)CCN(C(=O)[C@@H]5CCCC[C@H]5c5nccn5C)CC4)cnc32)cc1` (single isomer, unassigned) [Example 70, 3-[[4-hydroxy-1-[trans-2-(1-methylimidazol-2-yl)cyclohexanecarbonyl]-4-piperidyl]methyl]-7-(4-methoxyphenyl)pyrrolo[2,3-d]pyrimidin-4-one], the IC50 came to 9.23 µM. Turning to `COc1ccc(-n2ccc3c(=O)n(CC4(O)CCN(C(=O)[C@@H]5CCC(F)(F)C[C@H]5c5cccs5)CC4)cnc32)cc1` (single isomer, unassigned) [Example 73, 3-[[1-[trans-4,4-difluoro-2-(2-thienyl)cyclohexanecarbonyl]-4-hydroxy-4-piperidyl]methyl]-7-(4-methoxyphenyl)pyrrolo[2,3-d]pyrimidin-4-one], it took 0.0838 µM to reach half-maximal inhibition (IC50). In turn, `O=C([C@@H]1CC(F)(F)CC[C@H]1c1ccccc1)N1CCC(O)(Cn2cnc3c(-c4ccccc4)scc3c2=O)CC1` (single isomer, unassigned) [Example 78, 3-[[1-[trans-5,5-difluoro-2-phenyl-cyclohexanecarbonyl]-4-hydroxy-4-piperidyl]methyl]-7-phenyl-thieno[3,4-d]pyrimidin-4-one] displayed an IC50 of 10.3 µM. `O=C([C@@H]1CC(F)(F)CC[C@H]1c1ccccc1)N1CCC(O)(Cn2cnc3c(-c4ccccc4)scc3c2=O)CC1` (single isomer, unassigned) [Example 79, 3-[[1-[trans-5,5-difluoro-2-phenyl-cyclohexanecarbonyl]-4-hydroxy-4-piperidyl]methyl]-7-phenyl-thieno[3,4-d]pyrimidin-4-one] came in with a 50% inhibitory concentration (IC50) of 0.0601 µM. As for `CCn1cc([C@@H]2CC(F)(F)CC[C@H]2C(=O)N2CCC(O)(Cn3cnc4c(-c5ccccc5)scc4c3=O)CC2)cn1` (single isomer, unassigned) [Example 81, 3-[[1-[trans-2-(1-ethylpyrazol-4-yl)-4,4-difluoro-cyclohexanecarbonyl]-4-hydroxy-4-piperidyl]methyl]-7-phenyl-thieno[3,4-d]pyrimidin-4-one], inhibition was half-maximal at 76.3 µM (IC50).

Compound `O=C([C@@H]1CCC(F)(F)C[C@H]1c1cscn1)N1CCC(O)(Cn2cnc3c(-c4ccccc4)scc3c2=O)CC1` (single isomer, unassigned) [Example 82, 3-[[1-[trans-4,4-difluoro-2-thiazol-4-yl-cyclohexanecarbonyl]-4-hydroxy-4-piperidyl]methyl]-7-phenyl-thieno[3,4-d]pyrimidin-4-one] yielded a concentration for half-maximal inhibition (IC50) of 10.1 µM. The result for `O=C([C@@H]1CCC(F)(F)C[C@H]1c1cscn1)N1CCC(O)(Cn2cnc3c(-c4ccccc4)scc3c2=O)CC1` (single isomer, unassigned) [Example 83, 3-[[1-[trans-4,4-difluoro-2-thiazol-4-yl-cyclohexanecarbonyl]-4-hydroxy-4-piperidyl]methyl]-7-phenyl-thieno[3,4-d]pyrimidin-4-one] reads 0.632 µM; that for `O=C([C@@H]1CCC(F)(F)C[C@H]1c1ccco1)N1CCC(O)(Cn2cnc3c(-c4ccccc4)scc3c2=O)CC1` (single isomer, unassigned) [Example 86, 3-[[1-[trans-4,4-difluoro-2-(2-furyl)cyclohexanecarbonyl]-4-hydroxy-4-piperidyl]methyl]-7-phenyl-thieno[3,4-d]pyrimidin-4-one], 0.125 µM; that for `O=C([C@@H]1CCC(F)(F)C[C@H]1c1ccsc1)N1CCC(O)(Cn2cnc3c(-c4ccccc4)scc3c2=O)CC1` (single isomer, unassigned) [Example 88, 3-[[1-[trans-4,4-difluoro-2-(3-thienyl)cyclohexanecarbonyl]-4-hydroxy-4-piperidyl]methyl]-7-phenyl-thieno[3,4-d]pyrimidin-4-one], 0.31 µM. The compound `CC1(C)CC[C@@H](C(=O)N2CCC(O)(Cn3cnc4c(-c5ccccc5)scc4c3=O)CC2)[C@H](c2ccccc2)C1` (single isomer, unassigned) [Example 99, 3-[[1-(trans-4,4-dimethyl-2-phenyl-cyclohexanecarbonyl)-4-hydroxy-4-piperidyl]methyl]-7-phenyl-thieno[3,4-d]pyrimidin-4-one] returned an IC50 of 0.268 µM. For `Cn1ccc2c(=O)n(CC3(O)CCN(C(=O)[C@@H]4CCC(F)(F)C[C@H]4c4ccccc4)CC3)cnc21` (single isomer, unassigned) [Example 112, 3-[[1-[trans-4,4-difluoro-2-phenyl-cyclohexanecarbonyl]-4-hydroxy-4-piperidyl]methyl]-7-methyl-pyrrolo[2,3-d]pyrimidin-4-one], the IC50 was 0.471 µM. As to `CC(C)n1ccc2c(=O)n(CC3(O)CCN(C(=O)[C@@H]4CCC(F)(F)C[C@H]4c4ccccc4)CC3)cnc21` (single isomer, unassigned) [Example 113, 3-[[1-[trans-4,4-difluoro-2-phenyl-cyclohexanecarbonyl]-4-hydroxy-4-piperidyl]methyl]-7-isopropyl-pyrrolo[2,3-d]pyrimidin-4-one], the IC50 was 0.456 µM. In turn, `O=C([C@@H]1CCC(F)(F)C[C@H]1c1ccccc1)N1CCC(O)(Cn2cnc3c(ccn3C3CC3)c2=O)CC1` (single isomer, unassigned) [Example 116, 7-cyclopropyl-3-[[1-[trans-4,4-difluoro-2-phenyl-cyclohexanecarbonyl]-4-hydroxy-4-piperidyl]methyl]pyrrolo[2,3-d]pyrimidin-4-one] had a 50% inhibitory concentration (IC50) of 0.205 µM. Compound `COc1ccc(-n2ccc3c(=O)n(CC4(O)CCN(C(=O)[C@@H]5CCC(=O)N(C)[C@H]5c5ccccc5)CC4)cnc32)cc1` (single isomer, unassigned) [Example 118, 3-{[4-hydroxy-1-(trans-1-methyl-6-oxo-2-phenylpiperidine-3-carbonyl)piperidin-4-yl]methyl}-7-(4-methoxyphenyl)-3,7-dihydro-4H-pyrrolo[2,3-d]pyrimidin-4-one] showed a 50% inhibitory concentration (IC50) of 4.64 µM. Next, `COc1ccc(-n2ccc3c(=O)n(CC4(O)CCN(C(=O)C5CCCCN5c5ccccc5)CC4)cnc32)cc1` (stereo not shown) [Example 10, 3-[[4-hydroxy-1-(1-phenylpiperidine-2-carbonyl)-4-piperidyl]methyl]-7-(4-methoxyphenyl)pyrrolo[2,3-d]pyrimidin-4-one]: 0.425 µM; `COc1ccc(-n2ccc3c(=O)n(CC4(O)CCN(C(=O)C5CCCN5c5ccccc5)CC4)cnc32)cc1` (stereo not shown) [Example 11, 3-[[4-hydroxy-1-(1-phenylpyrrolidine-2-carbonyl)-4-piperidyl]methyl]-7-(4-methoxyphenyl)pyrrolo[2,9-d]pyrimidin-4-one]: 2.57 µM.
